For 43 molecules, fold induction results are on record in patent US9527828B2, “Method for expanding hematopoietic stem cells using heterocyclic compound” (Nissan Chemical Industries, Ltd., priority 2007, dated 2016).

In the test the test system is CD34^+CD38^− cells. In words: Expansion of CD34+CD38− cells from human cord blood-derived CD34+ cells (Example 2). The format is cell-based. The following applies: Homo sapiens, 168 h, 1 μg/mL compound, 50 ng/mL SCF, StemSpan SFEM, 7 days; based on number of CD34+CD38− cells in the absence of compound; read-out: Expansion efficiency. As for the experimental part:
The human cord blood-derived CD34^+ cells collected or purchased in Example 1 were plated on a 24-well plate (TPP) (10000 cells/1/mL/well). As the culture medium, StemSpan SFEM (Stemcell Technologies) containing 50 ng/mL SCF (Peprotech) was used, and Compounds No. 1 to 133 dissolved in dimethyl sulfoxide were added in an amount of 0.1% (v/v) to a final concentration of 1 μg/mL.
After the cells were incubated in liquid culture at 37° C. for 7 days in a CO2 incubator (5% CO2), the number of viable cells was counted by trypan blue assay. The number of CD34^+CD38^− cells was calculated as follows. After the incubation, the cells in the liquid culture was stained with a CD34 antibody (APC, Becton, Dickinson and Company) and a CD38 antibody (PE, Becton, Dickinson and Company), then washed with PBS(−) containing 2% (v/v) FBS and stained with propidium iodide (Sigma-Aldrich Japan) added to a final concentration of 5 μg/mL. The stained cells were analyzed with a flow cytometer JSAN (Bay Bioscience) to determined the proportion of CD34^+CD38^− cells, which was multiplied by the number of viable cells to calculate the number of CD34^+CD38^− cells.
The expansion efficiencies in the presence of 1 μg/mL of compounds based on the number of CD34^+CD38^− cells in the absence of them are shown in Tables 2 and 3 on a scale of A for expansion efficiencies of 10 or greater, B for expansion efficiencies of at least 5 and less than 10, and C for expansion efficiencies of at least 3 and less than 5.
Regarding `C/C(=N\NC(=O)c1ccc(C(=O)N(C)Cc2ccccc2)s1)c1csc(-c2cccc(Cl)c2)c1O` [compound 79], the fold induction at 1 µg/mL was in the range of 3 to 5.

In the case of `C/C(=N\NC(=O)c1ccc(C(=O)NCc2ccccc2C(N)=O)s1)c1csc(-c2ccc(Br)cc2)c1O` [compound 101], the fold induction at 1 µg/mL was no less than 10.

In the case of `C/C(=N\NC(=O)c1ccc(C(=O)NCc2ccccn2)s1)c1csc(-c2cccc(Cl)c2)c1O` [compound 75], the fold induction at 1 µg/mL lay in the range of 3 to 5.

Regarding `C/C(=N\NC(=O)c1ccc(C(=O)NC2CCC(O)CC2)s1)c1csc(-c2ccc(Cl)c(Cl)c2)c1O` (stereo not shown) [compound 68], the fold induction at 1 µg/mL was in the range of 5 to 10.

Regarding `C/C(=N\NC(=O)c1ccc(C(=O)NCc2ccc(S(N)(=O)=O)cc2)s1)c1csc(-c2ccc(Cl)c(Cl)c2)c1O` [compound 61], the fold induction at 1 µg/mL was in the range of 5 to 10.

For `C/C(=N\NC(=O)c1ccc(C(=O)NCc2ccc(C(N)=O)cc2)s1)c1csc(-c2ccc(Br)cc2)c1O` [compound 87], the fold induction at 1 µg/mL was no less than 10.

`C/C(=N\NC(=O)c1ccc(C(=O)NCCCN(C)C)s1)c1csc(-c2ccc(Cl)c(Cl)c2)c1O` [compound 64]: the fold induction at 1 µg/mL lay in the range of 3 to 5.

Turning to `COc1cc(CNC(=O)c2ccc(C(=O)N/N=C(\C)c3csc(-c4ccc(OC(F)(F)F)cc4)c3O)s2)on1` [compound 15], the fold induction at 1 µg/mL was no less than 10.

With `C/C(=N\NC(=O)c1ccc(C(=O)NCc2cc(C)n(C)n2)s1)c1csc(-c2ccc(C(F)(F)F)cc2)c1O` [compound 56], the fold induction at 1 µg/mL was 5 to 10.

On to `C/C(=N\NC(=O)c1ccc(C(=O)NCc2c(C)nn(C)c2C)s1)c1csc(-c2ccc(C(F)(F)F)cc2)c1O` [compound 49], for which the fold induction at 1 µg/mL was in the range of 5 to 10.

`C/C(=N\NC(=O)c1ccc(C(=O)NCc2ccnn2C)s1)c1csc(-c2ccc(Cl)cc2)c1O` [compound 58]: the fold induction at 1 µg/mL is 5 to 10.

Regarding `CCNC(=O)c1ccc(C(=O)N/N=C(\C)c2csc(-c3ccc(Cl)c(Cl)c3)c2O)s1` [compound 24], the fold induction at 1 µg/mL lay in the range of 5 to 10.

Consider `C/C(=N\NC(=O)c1ccc(C(=O)NCc2ccno2)s1)c1csc(-c2ccc(C(F)(F)F)cc2)c1O` [compound 48], for which the fold induction at 1 µg/mL fell in the range of 5 to 10.

Consider `COc1ccc(-c2scc(/C(C)=N/NC(=O)c3ccc(C(=O)NCc4cc(C)n(C)n4)s3)c2O)cc1` [compound 129], for which the fold induction at 1 µg/mL is no less than 10.

Consider `CNC(=O)c1ccc(CNC(=O)c2ccc(C(=O)N/N=C(\C)c3csc(-c4ccc(OC)cc4)c3O)s2)cc1` [compound 112], for which the fold induction at 1 µg/mL is no less than 10.

In the case of `CC(=O)Nc1ccc(C(C)NC(=O)c2ccc(C(=O)N/N=C(\C)c3csc(-c4ccc(Cl)cc4)c3O)s2)cc1` (stereo not shown) [compound 124], the fold induction at 1 µg/mL was no less than 10.

In the case of `CC(=O)Nc1ccc(C(C)NC(=O)c2ccc(C(=O)N/N=C(\C)c3csc(-c4ccc(C(C)(C)C)cc4)c3O)s2)cc1` (stereo not shown) [compound 121], the fold induction at 1 µg/mL is 5 to 10.

On to `C/C(=N\NC(=O)c1ccc(C(=O)NCc2ccc(C(N)=O)cc2)s1)c1csc(-c2ccc(Cl)cc2)c1O` [compound 89], for which the fold induction at 1 µg/mL is no less than 10.

`CNC(=O)c1ccc(CNC(=O)c2ccc(C(=O)N/N=C(\C)c3csc(-c4ccc(Cl)cc4)c3O)s2)cc1` [compound 110]: the fold induction at 1 µg/mL is no less than 10.

`C/C(=N\NC(=O)c1ccc(C(=O)NCc2cc(Cl)no2)s1)c1csc(-c2ccc(Cl)c(Cl)c2)c1O` [compound 47]: the fold induction at 1 µg/mL was in the range of 5 to 10.

Take `COc1cc(CNC(=O)c2ccc(C(=O)N/N=C(\C)c3csc(-c4ccc(Cl)c(Cl)c4)c3O)s2)on1` [compound 7]: the fold induction at 1 µg/mL was no less than 10.

Regarding `C/C(=N\NC(=O)c1ccc(C(=O)NCc2cnc(C)cn2)s1)c1csc(-c2ccc(Cl)c(Cl)c2)c1O` [compound 39], the fold induction at 1 µg/mL is 5 to 10.

For `C/C(=N\NC(=O)c1ccc(C(=O)NCc2cscn2)s1)c1csc(-c2ccc(Cl)c(Cl)c2)c1O` [compound 35], the fold induction at 1 µg/mL lay within 5 to 10.

On to `CCCNC(=O)c1ccc(C(=O)N/N=C(\C)c2csc(-c3ccc(Cl)c(Cl)c3)c2O)s1` [compound 62], for which the fold induction at 1 µg/mL was 3 to 5.

For the molecule `C/C(=N\NC(=O)c1ccc(C(=O)NCc2cc[n+]([O-])cc2)s1)c1csc(-c2ccc(C(F)(F)F)cc2)c1O` [compound 57], the fold induction at 1 µg/mL fell in the range of 5 to 10.

As for `C/C(=N\NC(=O)c1ccc(C(=O)NCc2ccccc2)s1)c1csc(-c2ccc(Cl)c(Cl)c2)c1O` [compound 16], the fold induction at 1 µg/mL was no less than 10.

For `C/C(=N\NC(=O)c1ccc(C(=O)NCc2cnn(C)n2)s1)c1csc(-c2ccc(C(F)(F)F)cc2)c1O` [compound 54], the fold induction at 1 µg/mL fell in the range of 5 to 10.

Turning to `C/C(=N\NC(=O)c1ccc(C(=O)NCc2cn(C)cn2)s1)c1csc(-c2ccc(Br)cc2)c1O` [compound 130], the fold induction at 1 µg/mL is no less than 10.

`CC(=O)Nc1ccc(C(C)NC(=O)c2ccc(C(=O)N/N=C(\C)c3csc(-c4ccc(OC(F)(F)F)cc4)c3O)s2)cc1` (stereo not shown) [compound 125]: the fold induction at 1 µg/mL is no less than 10.

For `C/C(=N\NC(=O)c1ccc(C(=O)NCc2ccnn2C)s1)c1csc(-c2ccc(C(F)(F)F)cc2)c1O` [compound 45], the fold induction at 1 µg/mL lay in the range of 5 to 10.

On to `C/C(=N\NC(=O)c1ccc(C(=O)NCc2cccc(C(N)=O)c2)s1)c1csc(-c2ccc(C(C)(C)C)cc2)c1O` [compound 93], for which the fold induction at 1 µg/mL was no less than 10.

As for `C/C(=N\NC(=O)c1ccc(C(=O)NCc2ccc(S(C)(=O)=O)cc2)s1)c1csc(-c2ccc(Cl)c(Cl)c2)c1O` [compound 59], the fold induction at 1 µg/mL lay within 5 to 10.

In the case of `C/C(=N\NC(=O)c1ccc(C(=O)NC(C)c2ccc(C(N)=O)cc2)s1)c1csc(-c2ccc(Cl)cc2)c1O` (stereo not shown) [compound 117], the fold induction at 1 µg/mL is no less than 10.

`C/C(=N\NC(=O)c1ccc(C(=O)NC(C)c2ccc(C(N)=O)cc2)s1)c1csc(-c2ccc(OC(F)(F)F)cc2)c1O` (stereo not shown) [compound 118]: the fold induction at 1 µg/mL was no less than 10.

Regarding `COc1c(/C(C)=N/NC(=O)c2ccc(C(=O)NCc3ccncc3)s2)csc1-c1ccc(Cl)c(Cl)c1` [compound 42], the fold induction at 1 µg/mL was 5 to 10.

Turning to `C/C(=N\NC(=O)c1ccc(C(=O)NCc2ccc(C(N)=O)cc2)s1)c1csc(-c2ccc(OC(F)(F)F)cc2)c1O` [compound 90], the fold induction at 1 µg/mL is no less than 10.

On to `CCCCCN(C)C(=O)c1ccc(C(=O)N/N=C(\C)c2csc(-c3ccc(Cl)c(Cl)c3)c2O)s1` [compound 27], for which the fold induction at 1 µg/mL lay in the range of 5 to 10.

With `CC(=O)Nc1ccc(C(C)NC(=O)c2ccc(C(=O)N/N=C(\C)c3csc(-c4ccc(Cl)c(Cl)c4)c3O)s2)cc1` (stereo not shown) [compound 120], the fold induction at 1 µg/mL is no less than 10.

Consider `C/C(=N\NC(=O)c1ccc(C(=O)NC2CC2)s1)c1csc(-c2ccc(Cl)c(Cl)c2)c1` [compound 21], for which the fold induction at 1 µg/mL is no less than 10.

Turning to `C/C(=N\NC(=O)c1ccc(C(=O)NC(C)C)s1)c1csc(-c2ccc(Cl)cc2)c1O` [compound 77], the fold induction at 1 µg/mL is 5 to 10.

Turning to `C/C(=N\NC(=O)c1ccc(C(=O)NCc2cccc(C(N)=O)c2)s1)c1csc(-c2ccc(OC(F)(F)F)cc2)c1O` [compound 97], the fold induction at 1 µg/mL is no less than 10.

As to `C/C(=N\NC(=O)c1ccc(C(=O)NCCN2CCOCC2)s1)c1csc(-c2ccc(Cl)c(Cl)c2)c1O` [compound 23], the fold induction at 1 µg/mL is 5 to 10.

On to `COc1cc(CNC(=O)c2ccc(C(=O)N/N=C(\C)c3csc(-c4ccc(C(F)(F)F)cc4)c3O)s2)on1` [compound 50], for which the fold induction at 1 µg/mL lay within 5 to 10.
